One block for each molecule: values may come before it.
Experiments:
[1] = Plasma concentration of quinagolide and active metabolites in sheep with intravaginal rings; format: in vivo; conditions: first and second sheep trials
Source text: During the first and second sheep trials, the plasma concentration of quinagolide (Q) was monitored over the 28 day period. The plasma concentrations of active metabolites (M1 and M2: see FIG. 13) were also monitored in the sheep. The results are illustrated in FIG. 10 (see Tables 14 and 17 for quinagolide dose).

[2] = PK variables for quinagolide administered by an intravaginal ring in clinical study 000155; format: in vivo, healthy women; conditions: for Tmax: median
Procedure: Following intravaginal administration the plasma concentration of quinagolide increased to reach a maximum at approximately 37-39 hours with a subsequent slow decline until the ring was removed (see FIG. 15). The mean time for reaching a maximum serum concentration was similar between all three dose groups but with substantial inter-individual variation. Cmax increased with increasing dose while the mean terminal half-life estimations were appropriately the same in all three doses (Table 21: above).

[3] = In vivo release profile of vaginal rings in clinical study 000155; parameters: species or system healthy women
[4] = vaginal ring dose load 400 μg, target release 5 μg/day
[5] = vaginal ring dose load 800 μg, target release 10 μg/day
[6] = vaginal ring dose load 1200 μg, target release 15 μg/day

Structure (SMILES): CCCN1CC(NS(N)(=O)=O)CC2Cc3c(O)cccc3CC21 (centres unmarked) [Batch M2]
molar plasma concentration, fold lower than the quinagolide [1]: approximately 10 fold

Structure (SMILES): CCCN1CC(NS(=O)(=O)NCC)CC2Cc3c(O)cccc3CC21 (centres unmarked) [Batch M1]
molar plasma concentration, fold lower than the quinagolide [1]: approximately 10 fold

AUC Day 0-28 (Hpg/mL) ([2]; 400 μg intravaginal ring, Mean (SD)): 738 (236) Hpg/mL
AUC Day 0-28 (Hpg/mL) ([2]; 800 μg intravaginal ring, Mean (SD)): 1497 (379) Hpg/mL
AUC Day 0-28 (Hpg/mL) ([2]; 1200 μg intravaginal ring, Mean (SD)): 3297 (1040) Hpg/mL
Cmax ([2]; female, human, plasma, 400 ug, 400 μg intravaginal ring, Mean (SD)): 3.4 pg/mL
Tmax ([2]; female, human, plasma, 400 ug, 400 μg intravaginal ring): 48 h
Cmax ([2]; female, human, plasma, 800 ug, 800 μg intravaginal ring, Mean (SD)): 5.3 pg/mL
Tmax ([2]; female, human, plasma, 800 ug, 800 μg intravaginal ring): 48 h
Cmax ([2]; female, human, plasma, 1200 ug, 1200 μg intravaginal ring, Mean (SD)): 10.9 pg/mL
Tmax ([2]; female, human, plasma, 1200 ug, 1200 μg intravaginal ring): 36 h
half-life ([2]; female, human, plasma, other: intravaginal ring, 400 ug, printed in the 400 μg line only, Mean (SD), read-out: T½ (converted)): 14 h
time at which plasma concentration of quinagolide reached a maximum ([2]; intravaginal administration, all three dose groups): 37 to 39 h
Average release 35 Days [3, 4]: 9.4 µg/day
Average release 7 days [3, 4]: 10.4 µg/day
Average release 28 days [3, 4]: 8.8 µg/day
Average release 35 Days [3, 5]: 16.8 µg/day
Average release 7 days [3, 5]: 24.1 µg/day
Average release 28 days [3, 5]: 12.6 µg/day
Average release 35 Days [3, 6]: 21.3 µg/day
Average release 7 days [3, 6]: 43.4 µg/day
Average release 28 days [3, 6]: 29.7 µg/day
quinagolide concentration in the plasma at any point during the study [1]: ≤ 50 pg/mL
Structure (SMILES): CCCN1C[C@@H](NS(=O)(=O)N(CC)CC)C[C@@H]2Cc3c(O)cccc3C[C@H]21 [quinagolide, N,N-diethyl-N′-[(3S,4aS, 10aR)-6-hydroxy-1-propyl-1,2,3,4,4a,5,10,10a-octahydrobenzo[g]quinolin-3-yl]sulfamide]

— patent publication US20180008535A1, “Drug-Device Unit Containing Quinagolide” (Ferring B.V., priority 2014, published 2018)
